Data on ten compounds can be found in patent publication US8470886B2, “Topical ibuprofen formulations” (NUVO Research Inc., priority 2009, dated 2013).

Data set [1] is described as follows: pH of the formulation. The data set is classed as physicochemical. The settings on record: Table 20; single ingredient in water at its Ib949 wt %.
The nature of data set [2]: Skin permeation of ibuprofen through porcine skin, Franz diffusion cells (finite dosing). Format: in vitro ADME. As to conditions: bar graphs FIG. 1-13. How it is done: “Enhancement ratio” (“ER”) as used herein is the ratio of a test result (e.g., ug/cm^2 accumulated dose of product) from a formulation comprising ibuprofen to the corresponding test result from a control composition comprising ibuprofen at the same concentration in the formulation.
“Ratio”, as it pertains to comparative flux values described herein, are calculated based on the cumulative amount of active (e.g. ibuprofen) delivered through the skin over a period of 4-60 hrs, preferably 24 hrs.
The permeation of ibuprofen through porcine skin from each of the present formulations was measured using Franz diffusion cells (“FDC”s). Porcine skin pieces are obtained from Lampire Biological Laboratories, Inc., Pipersville, Pa. Porcine skins were collected immediately following animal sacrifice, and the hairs were trimmed with clippers. Larger pieces of excess fat were removed with a filet knife. The skin was then trimmed to a set thickness of some 2 mm, cut into individual pieces, wrapped in aluminum foil, frozen, shipped, and stored at −78° C.
Prior to use, the skin pieces were allowed to thaw, in air, to room temperature. […]
Samples were drawn from the receptor wells at various times, as provided in the examples that follow. […] The concentrations of ibuprofen in the samples were measured using HPLC analysis using a C18 column and acetonitrile and water as the mobile phase. […]

The conditions of data set [3]: cited from earlier work.

Molecules are shown by their SMILES. Counter-ions that a name gives are not always drawn.

For the compound `CCOCCOCCO` [Transcutol], the pH-water and ingredients in data set [1] was 4.32. `CCCOC(=O)c1ccc(O)cc1` [PP]: the pH-water and ingredients in data set [1] worked out at 6.13. Regarding `CC(C)Cc1ccc([C@H](C)C(=O)O)cc1` [(S) form, (S+)-ibuprofen], the “Flux / permeation of ibuprofen, result in words” value in data set [2] is on record as “no significant difference in flux”.

For the compound `CCOC(=O)CC(O)(CC(=O)OCC)C(=O)OCC` [Triethyl Citrate], the pH-water and ingredients in data set [1] was found to be 3.72. In data set [1], `COC(=O)c1ccc(O)cc1` [MP] had a pH-water and ingredients of 5.72. Same read-out and setting: the same measure for `CC(O)CO` (centres unmarked) [PG]: 6.97; for `CCO` [Ethanol]: 7.31. `CC(O)C(=O)O` (centres unmarked) [Lactic Acid] showed a pH-water and ingredients in data set [1] of 2.4. `CCCCCCCCCCCCOS(=O)(=O)[O-].[Na+]` [Na Lauryl Sulfate] yielded a pH-water and ingredients in data set [1] of 7.97.

Take `CC(C)Cc1ccc(C(C)C(=O)O)cc1` (racemic) [Ibuprofen, 2-(4-isobutylphenyl)propanoic acid]: in data set [3] (ethanol and acetone), the “Solubility in polar organic solvents” value is “readily soluble”. Also, in data set [3] (water), the Solubility in water is reported as < 0.1 mg/mL.
